This is an account of results in a melting point compilation (Tetko et al.; mined from patent text by program, amines drawn as free bases though some values may be those of a salt).

SMILES strings stand for the structures. Residues, ends and D or L forms follow the SMILES beside them. *: point of attachment. Boc = CC(C)(C)OC(=O)*

What is called melting point is the temperature, or range, at which the solid turns liquid. Turning to `CC(=O)CSc1nc2ccccc2n1C`, the melting point lay within 87 to 88 °C.
Next, `Cc1ncc(-c2ccc(Cl)cc2)cc1C#N`: 158 to 159 °C.
In turn, `O=S(=O)(NCC(F)(F)F)c1ccc(Nc2nc(OCC3CCCCC3)c3nc[nH]c3n2)cc1` came in with a melting point of 223 to 224 °C.
Then `O=S(=O)(N=CN(CCO)CCO)c1cc(Br)cc(Br)c1`, with 118 °C.
Then `CCNCCCOc1ccc(-c2ccc(C(=O)O)cc2)cc1-c1ccc2c(c1)C(C)(C)CCC2(C)C`, with 233 °C; and `Cc1nc(N)nc(N)c1-c1cc(Cl)c([N+](=O)[O-])c(Cl)c1Cl`, with 313 to 315 °C; and `CC(C)c1c(Cl)nc(NC=O)nc1Cl`, with 95 to 96 °C.
Next, `Cc1ccc2c(n1)NC(C)C(=O)N2` (racemic): 203 to 205 °C; `COc1c(Cl)cc(OCC=C(Cl)Cl)cc1C=O`: 78 °C; `CCCC(=O)Nc1n[nH]c2cc(Cl)c(-c3ccc(OCc4ccccc4)cc3)cc12`: 230 °C.
With `CCOC(=O)C1C(=O)NC(=O)C(C#N)C12CCCCC2` (centres undefined), the melting point lay within 167 to 170 °C.
Then `COc1cc2cc(C#N)sc2cc1OC`, with 125 °C; and `O=C(CCC1CCCCC1)C1=C(O)CSC1=O`, with 60 to 62 °C.
Then `Fc1ccc(-c2nc(C(F)(F)F)nc(Cl)c2-c2ccccc2)cc1`, with 67 to 68 °C; and `CC(C)NC(=O)N1N=C(c2ccc([N+](=O)[O-])cc2)c2cc(Cl)ccc2CC1C` (centres undefined), with 172 to 174 °C.
Next, `O=c1nc(-c2ccccc2)c2ccsc2n1CC1CC1`: 191 to 192 °C.
As for `COc1cc(CNC(=S)NC(COC(=O)C(C)(C)C)Cc2ccc(C)c(C)c2)ccc1OCCN` (centres undefined), the melting point lay in the range of 62 to 63 °C.
Then `CC(O)(c1cccc(C(F)(F)F)c1)c1cc2cccc(-c3cccc(C(=O)NCCO)c3)c2s1` (centres undefined), with 176 to 177 °C; and `CC(C)(C)Nc1c(NCc2cccc(C(F)(F)F)c2)c(=O)c1=O`, with 237 to 239 °C.
As for `CC1CCCC(C)N1Cc1nc(-c2ncn3c2C2CCN2C(=O)c2c(Cl)cccc2-3)no1` (centres undefined), the melting point was 233 to 236 °C.
In turn, `COC(=O)c1cccc(NC(=S)Nc2cc(C(=O)Nc3ccccc3)ccc2OC)c1` had a melting point of 178 to 180 °C.
Molecule `COc1ccc(CCN2C=CC=C3C2=Nc2ccccc2OS3(=O)=O)cc1O` gave a melting point of 158 to 160 °C.
In the case of `CC(=O)c1ccc(-c2ccc(Cl)c(Cl)c2)o1`, the melting point was 114 to 117 °C.
Next, `O=C(Oc1cccc2c(C(=O)c3ccc(F)cc3)c(-c3ccc(OCCN4CCCC4)cc3)sc12)c1ccc(F)cc1`: 64 to 68 °C; `Cc1cc(C)cc(C(=O)c2c(C(C)C)c(=O)[nH]c(=O)n2Cc2cc(F)nc(F)c2)c1`: 185 to 187 °C.
Next, `CCCc1c(C(=O)C2CCCC2)c2ccc(C(N)=O)cc2n1Cc1ccccc1Cl`: 202 °C; `CCCCN1CCC(CNC(=O)c2cc(Cl)cc3c2OCCO3)C(O)C1` (centres undefined): 112 °C; `CC(c1ccc(C(=O)N(C)C2CCCCC2)cc1)n1cnc2ccccc21` (centres undefined): 142 to 145 °C.
As to `O=Cc1ccc2c(c1)C=C(C(=O)O)C(C(F)(F)F)O2` (centres undefined), the melting point was in the range of 211 to 216 °C.
Then `NP(N)(=O)NC(=O)CCc1ccccc1`, with more than 300 °C.
Then `CN1CCc2cc(O)c(O)cc2C1C1(c2ccc3ccccc3c2)CCC1` (centres undefined), with 150 to 153 °C; and `CN(C)C(=O)Oc1ccc(Cl)c2c1C(=O)c1ccccc1C2=O`, with 182 to 184 °C; and `CSc1cnnc(Cl)c1`, with 98 to 100 °C.
Then `Clc1ccc(Cn2cnc3c(-c4ccco4)ncnc32)cc1Cl`, with 183 to 185 °C.
Consider `CC(C)(C)OC(=O)n1c(=O)n(C2CC3CC(N4CCN(c5ccc(F)cc5)CC4)CC3C2)c2ccccc21` (centres undefined), for which the melting point is 244 to 245 °C.
Next, `O[C@H]1COC(c2ccccc2)=N[C@@H]1c1ccccc1` (racemic): 150 °C.
Then `CCN(CC)C(=O)C(C)Oc1cc(-c2ccccc2)cc2ccccc12` (centres undefined), with 109 °C; and `COC(=O)C(CCO)NS(=O)(=O)c1ccc(Cl)cc1` (racemic), with 91 to 92 °C.
`CCOC(=O)c1c(C(C)(C)O)nc(SC)n1Cc1ccc(-c2ccccc2-c2nnn[nH]2)cc1`: the melting point is 125 to 127 °C.
Next, `CCN1C(=O)NC(=O)C1O` (centres undefined): 119 to 120 °C; `CCOC[C@H]1CN(c2ccc(OCc3ccccc3)cc2)C(=O)O1`: 92 °C; `COC(=O)CNC(=O)CNC(=O)OC(C)(C)C` (Boc-Gly-Gly-OMe): 132 to 135 °C.
Next, `O=C1COc2c(cc(Cl)cc2C(=O)NC2CCN(CCc3ccccc3)CC2)N1`: 233 to 235 °C.
Then `COc1ccc(F)cc1C(C)(C)CC(O)(CN1CC(=O)N(C)c2ccccc21)C(F)(F)F` (centres undefined), with 132 to 134 °C; and `CCCc1c(O)c(C(C)=O)cc(I)c1OCc1ccc(C(=O)O)cc1`, with 167 to 168 °C.
For the molecule `CC(C)S(=O)(=O)Nc1ccc([C@@H](C)C(=O)N[C@@H](C)C(N)=O)cc1`, the melting point lay in the range of 132 to 135 °C.
Then `CCCCC[C@H](CC(=O)NCc1c(C(C)C)cccc1C(C)C)c1cccc2c1OCO2`, with 133 to 134 °C; and `O=C(O)CCCc1ccc(C(NS(=O)(=O)c2ccc(Cl)cc2)C2CCCC2)cc1` (single isomer, unassigned; (-)), with 160 to 162 °C.
In turn, `COc1cc(C=C(C#N)C(=O)Nc2ccccc2)cc(Cl)c1O` gave a melting point of 273 °C.
Then `CCCCC1=C(C#N)C(c2cccc3nonc23)c2c[nH]nc2N1` (centres undefined), with 200 °C; and `CCCNC(=O)CCCCCn1cnc2c(N)nc3ccccc3c21`, with 128 to 130 °C; and `CCNC1CCc2c(ccc(OC)c2OC)C1O` (centres undefined), with 125 to 128 °C.
Then `c1ccc(N2CCN(c3nsc4ccccc34)CC2)cc1`, with 260 to 262 °C; and `CCCCCCCCCCCCSC(C)Cn1ccnc1` (centres undefined), with 79.5 to 81 °C; and `CCCNC1=NS(=O)(=O)c2cc(C(=O)O)ccc2N1`, with more than 310 °C.
Next, `CC1(C)Oc2ccc(C#N)cc2[C@@H](NC(=O)NC(=O)C(Cl)(Cl)Cl)[C@@H]1O` (relative stereo): 231 to 233 °C.
As to `CCc1c(Sc2cc(C)cc(C)c2)n(C/C=C/CO)c(=O)[nH]c1=O`, the melting point is 157 to 158 °C.
Next, `COC(=O)c1c(C)nc2c(c1N)c1ccccc1n2C`: 98 to 100 °C.
Then `Nc1ccc2c(ccn2Cc2ccccc2)c1`, with 66 to 68 °C; and `CC(=O)NC1CC(C)(C)N(OC2CCCCC2)C(C)(C)C1`, with 140 to 144 °C.
For `COc1nc2cc([N+](=O)[O-])cc(C)c2nc1OC`, the melting point lay within 167 to 168 °C.
Next, `NC(=O)NC(=O)c1ccccn1`: 183 to 185 °C.
Then `CC(C)(C)[Si](C)(C)OC(=O)O[Si](C)(C)C(C)(C)C`, with 128 to 130 °C; and `Cc1cccc(C(=C2CN(C(c3ccccc3)c3ccccc3)C2)S(C)(=O)=O)c1`, with 180 °C; and `OCCCCOCCCCOCCCCOCCCCOCCCCO`, with 34.5 to 36.5 °C.
Next, `CN1CCN(c2cccc3ccc(NC(=O)Nc4ccccc4)cc23)CC1`: 213 to 214 °C; `CC(c1oc2ccc(Br)cc2c(=O)c1-c1ccccc1F)n1cnc2c(N)ncnc21` (centres undefined): 256 to 258 °C.
As to `CN(CC(=O)[C@@H](N)Cc1ccccc1)C(=O)N1CCC[C@H]1C(=O)O`, the melting point lay within 174 to 175 °C.
Next, `CSC(C[C@H](NC(=O)[C@H](CC(C)C)NC(=O)OCc1ccccc1)C(C)=O)c1ccccc1` (some centres undefined): 119 to 120 °C.
Then `COC(=O)[C@@H]1OC(c2ccc(O)c(OC)c2)O[C@H]1C(=O)OC`, with 88 to 90 °C; and `CCCCCC(COc1ccc(C(=O)O)cc1)c1ccc2c(c1)SCCC2(C)C` (centres undefined), with 123 to 124 °C; and `COc1cccc2c1C(=O)c1c(OC)cc(-c3nc4ccccc4n3C)cc1C2=O`, with 283 to 284 °C.
Then `CN1C(=O)N(c2c(Cl)cccc2Cl)Cc2cnc(Nc3ccc(CCO)cc3)nc21`, with 148 to 151 °C; and `NC(=O)c1ccc(NC(=O)c2ccccc2SSc2ccccc2C(=O)Nc2ccc(C(N)=O)cc2)cc1`, with more than 270 °C.
For `CCOC(=O)Nc1cc(N2CCN(c3ccc([N+](=O)[O-])cc3)CC2)ccn1`, the melting point fell in the range of 243 to 245 °C.
Then `O=C1NC(=O)c2cc(CCCCOc3ccccc3)ccc21`, with 102 to 103 °C; and `CNC(=NOC)C1=Nc2ccc(Cl)cc2C(c2ccccc2F)=NC1`, with 140 to 142 °C; and `CC(c1oc2ccccc2c(=O)c1-c1cccc(F)c1)n1nc(-c2ccco2)c2c(N)ncnc21` (centres undefined), with 234 to 236 °C.
Regarding `CC(C)n1nnc(-c2cnc3ccccn3c2=O)n1`, the melting point was in the range of 146 to 148 °C.
Consider `O=C(COc1cc(-c2cccs2)nc2ccccc12)N1CCOCC1`, for which the melting point stood at 198 °C.
Turning to `Cc1c(CNCC2CCOCC2)n(C)c2c(C)c(NC(=O)c3ccc(OC[C@@H]4CCCO4)cc3)ccc12`, the melting point was 173 to 174 °C.
Next, `CCOC(=O)c1cc(C(=O)C=CN(C)C)c(=O)[nH]c1C(=O)OCC`: 71 °C; `C#CCN1C(=O)COc2ccc(-n3c(Cl)nc(C(F)(F)F)cc3=O)cc21`: 143 to 145 °C.
Then `CC(=O)Nc1nc(C)c(S(=O)(=O)NC(C)(CO)CO)s1`, with 201 °C; and `CCCCC(CC)C(=O)Nc1ccc(-n2nc(C(F)(F)F)cc2C(F)(F)F)cc1` (centres undefined), with 127 to 128 °C; and `CCCN(CCC)C1Cn2cnc3cccc(c32)C1C` (centres undefined), with 78 to 84 °C.
Then `CNC1(C)CN(c2nc3c(cc2F)c(=O)c(C(=O)O)cn3C(C)(C)C)C1`, with more than 300 °C.
Molecule `CC1=NS(=O)(=O)N(C)C(Cl)=N1` had a melting point of 86 to 90 °C.
Then `COC(=O)C(C)(SC)c1ccc(C(OC)(OC)c2ccccc2)s1` (centres undefined), with 61.5 to 62.5 °C.
